# Legend:
# [1] = system: plasma cytokine and chemokine levels; experiment: plasma multi-analyte analysis in LPS-stimulated mice; type: in vivo, mouse; settings: LPS 5 mg/kg i.p., AE1-329 300 μg/kg s.c.
# Procedure: The murine in vivo studies were conducted in accordance with the National Institutes of Health guidelines for the use of experimental animals and protocols were approved by the Institutional Animal Care and Use Committee. C57B6 EP4 floxed mice (Schneider et al., 2004) were kindly provided by Drs. Richard and Matthew Breyer (Vanderbilt University School of Medicine, Nashville, Tenn.), and C57B6 Cd11bCre mice (Boillee et al., 2006) were kindly provided by Dr. G. Kollias (Alexander Fleming Biomedical Sciences Research Center, Vari, Greece) and Dr. Donald Cleveland (UCSD, San Diego, Calif.). All mice were housed in an environment controlled for lighting (12 hour light/dark cycle), temperature, and humidity, with food and water available ad libitum. Cd11bCre:EP4f/f and Cd11bCre:EP4+/+ mice were generated by serial crosses of C57B6 Cd11bCre and EP4f/f and EP4+/+ lines. Male Cd11bCre: EP4f/f and Cd11bCre: EP4+/+ mice were treated with either saline or LPS (5 mg/kg intraperitoneally: n=5-8 per group, 13 months of age). 24 hours after injection, mice were euthanized and brain tissue was harvested and frozen at −80° C. For pharmacological experiments, C57B6 male mice (Jackson Laboratories, Bar Harbor, Me.; n=7 or 8 per group) received an injection of saline or LPS (5 mg/kg, i.p.+/−vehicle or AE1-329 ([…]) (Qin et al., 2007; Nagamatsu et al., 2006). Mice were euthanized 6 hours later, and brain tissue was harvested and frozen at −80° C. For collection of plasma, C57B6 male mice (n=5 per group) received an injection of saline or LPS (5 mg/kg, i.p.)+/−AE1-329 ([…].) or vehicle. […] Plasma was collected after centrifugation at 1000×g for 10 min at 4° C. and frozen at −80° C.
# Plasma was analyzed using the Rodent MAP™ Antigens, Version 2.0 multi-analyte profile (Rules Based Medicine, Austin, Tex.) that screens a total of 59 blood secreted proteins using multiplex fluorescent immunoassay.
# Data are presented as mean±standard error of the mean and analyzed using analysis of variance or Student's t test. Prism software (GraphPad Software, Inc. San Diego, Calif.) was used for statistical analyses. Data for Griess assays and quantitative Western analyses were analyzed using one-way or two-way ANOVA, followed by Newman-Keuls multiple comparison or Bonferroni posttest analysis, respectively. For plasma multi-analyte analysis, the concentrations of the 15 plasma proteins that reached statistical significance between LPS+vehicle versus LPS+AE1-329 cohorts were transformed to relative concentrations (Median Z-score). Cluster analysis (Gene Cluster3.0, University of Tokyo, Tokyo and Java TreeView 1.0.13, Alok Saldanda, Calif.) produced a separation of samples according to treatment group and protein levels in plasma. […]
# [2] = system: primary microglia; experiment: qPCR of inflammatory gene expression in LPS-stimulated primary microglia; type: cell-based, rat; settings: LPS treated primary microglia, AE1-329 100 nM, 3 h
# Procedure: Murine microglial-like BV-2 cells were grown in DMEM medium supplemented with 10% heat-inactivated fetal bovine serum (HyClone, Logan, Utah) and 100 units/ml each of penicillin and streptomycin and were maintained at 37° C. in a humidified atmosphere containing 5% CO2. For primary microglial cultures, cerebral cortices were isolated from postnatal day 2 Sprague-Dawley rat pups obtained from Charles River Laboratories International, Inc. (Davis, Calif.). Tissues were minced and incubated in 0.25% trypsin-EDTA, mechanically triturated in DMEM/F-12 with 10% FBS, and plated on poly-L-lysine-coated […]. Cultures were maintained for 14 days with media changes every 4 days. […]
# qPCR was carried out as previously described (Liang et al., 2008). […] The mRNA level for each target gene was quantified by SYBR Green-based qPCR using the QuantiTect SYBR Green PCR kit (Qiagen). […] Quantification was performed using the standard curve method. […]
# Inflammatory stimuli such as LPS can activate microglia through the CD14/TLR4 receptor complex and induce the expression of pro-inflammatory enzymes and cytokines (Fassbender et al., 2004; Walter et al., 2007). […] BV-2 cells were treated with LPS (10 ng/ml) in the presence or absence of the selective EP4 agonist AE1-329 (1 μM) for 6 h, and pro-inflammatory gene expression was measured using qPCR (see FIG. 2). […]
compound,measurement,setting,value
COCc1ccccc1CC[C@H](O)/C=C/[C@H]1[C@H](O)CC(=O)[C@@H]1SCCCSCC(=O)O [AE1-329],plasma levels of IL-10,[1]; 3 hours,significantly increased plasma levels
same,"plasma levels of TNF-α, IL-1α, eotaxin, MDC, MIP-1α, MIP-1β, MIP-1γ, MIP-2, MCP-1, MCP-3 and MCP-5",[1]; 3 hours,significantly decreased levels
same,plasma myeloperoxidase,[1]; 3 hours,reduced secreted levels
same,plasma levels of IL-6 and LIF,[1]; printed 'at 6 h',trend towards decreased levels
same,IL-10 expression,[2],upregulation of the anti-inflammatory IL-10
same,"pro-inflammatory gene expression (iNOS, COX-2, TNF-α, gp91phox)",[2],downregulation of pro-inflammatory gene expression

# From patent US20120283293A1, “Methods of neuroprotection involving Prostaglandin E2 EP4 (PGE2 EP4) receptor activation” (The Board of Trustees of the Leland Stanford Junior …, priority 2011, published 2012)
